According to patent publication US9321774B2, “Pyrrolobenzodiazepines” (MEDIMMUNE LIMITED, priority 2012, dated 2016):
In brackets after ≈: the same amount, converted by molar mass. Read-outs that look alike come from different tables or passages of the source.

Columns and labels:
Test in all cases: CLSI broth microplate assay, MIC
Format in all cases: cell-based
MRSA strain EMRSA-15 = settings: Staphylococcus aureus, read-out: Minimum inhibitory concentration (MIC mg/L) EMRSA-15
MRSA strain EMRSA-16 = settings: Staphylococcus aureus, read-out: Minimum inhibitory concentration (MIC mg/L) EMRSA-16
MRSA strain BB568 = settings: Staphylococcus aureus, read-out: Minimum inhibitory concentration (MIC mg/L) BB568
[1] = system: community-associated MRSA isolate USA300; settings: Staphylococcus aureus, read-out: Minimum inhibitory concentration (MIC mg/L) USA300
[2] = system: S. aureus VISA strain Mu50; settings: Staphylococcus aureus, read-out: Minimum inhibitory concentration (MIC mg/L) Mu50
E. faecalis VRE1 = settings: Enterococcus faecalis
E. faecium VRE10 = settings: Enterococcus faecium

Compound | MIC (MRSA strain EMRSA-15) [mg/L] | MIC (MRSA strain EMRSA-16) [mg/L] | MIC (MRSA strain BB568) [mg/L] | MIC [1] [mg/L] | MIC [2] [mg/L] | MIC (E. faecalis VRE1; VRE1, read-out: Minimum inhibitory concentration (MIC mg/L) VRE1) [mg/L] | MIC (E. faecium VRE10; VRE10, read-out: Minimum inhibitory concentration (MIC mg/L) VRE10) [mg/L] | MIC (MRSA strain EMRSA-15; EMRSA-15, Mueller-Hinton broth, 37° C.) [mg/L] | MIC (MRSA strain EMRSA-16; EMRSA-16, Mueller-Hinton broth, 37° C.) [mg/L] | MIC (MRSA strain BB568; BB568, Mueller-Hinton broth, 37° C.) [mg/L] | MIC ([2]; Mu50, Mueller-Hinton broth, 37° C.) [mg/L] | MIC (E. faecalis VRE1; VRE1, Mueller-Hinton broth, 37° C., read-out: Minimum inhibitory concentration (MIC mg/L) VRE1) [mg/L] | MIC (E. faecium VRE10; VRE10, Mueller-Hinton broth, 37° C., read-out: Minimum inhibitory concentration (MIC mg/L) VRE10) [mg/L]
COC(=O)c1cc(-c2ccc(NC(=O)c3cc(-c4ccc(NC(=O)CCCOc5cc6c(cc5OC)C(=O)N5CCC[C@H]5C=N6)cc4)co3)cc2)cn1C [Compound 56, (S)-methyl 4-(4-(4-(4-(4-((7-methoxy-5-oxo-2,3,5,11a-tetrahydro-1H-benzo[e]pyrrolo[1,2-a][1,4]diazepin-8-yl)oxy)butanamido)phenyl)furan-2-carboxamido)phenyl)-1-methyl-1H-pyrrole-2-carboxylate] | 0.25 (≈ 0.343 µM) | 0.5 (≈ 0.685 µM) | 0.5 (≈ 0.685 µM) | 1 (≈ 1.37 µM) | 0.5 (≈ 0.685 µM) | 0.5 (≈ 0.685 µM) | 0.25 (≈ 0.343 µM) |  |  |  |  |  | 
COc1cc2c(cc1OCCCC(=O)Nc1cn(C)c(C(=O)Nc3ccc(OCCN4CCOCC4)cc3)n1)N=C[C@@H]1CCCN1C2=O [Compound 39, (S)-4-(4-((7-methoxy-5-oxo-2,3,5,11a-tetrahydro-1H-benzo[e]pyrrolo[1,2-a][1,4]diazepin-8-yl)oxy)butanamido)-1-methyl-N-(4-(2-morpholinoethoxyl)phenyl)-1H-imidazole-2-carboxamide] |  |  |  | 0.5 (≈ 0.758 µM) |  |  |  | 0.25 (≈ 0.379 µM) | 0.25 (≈ 0.379 µM) | 0.25 to 0.5 (≈ 0.379 to 0.758 µM) | 0.125 (≈ 0.189 µM) | 0.125 (≈ 0.189 µM) | 0.5 (≈ 0.758 µM)
